pKd: −log10 of the molar value. Active and inactive are the calls of the source. The rule behind the calls is not given here.

Test [1] addresses T1, Protein cereblon/Dual specificity tyrosine-phosphorylation-regulated kinase 1A (Homo sapiens, UniProt Q13627+Q96SW2). The experiment in a line: PROTAC activity at CRBN/HibiT-tagged DYRK1A in Flp-In-T-REx-293 cells assessed as induction of degradation of DYRK1A by measuring maximum efficacy at 1 uM measured after 24 hrs by NanoBiT luciferase assay relative to control. The class given is cell-based.

The target of test [2] is T1, Protein cereblon/Dual specificity tyrosine-phosphorylation-regulated kinase 1A. The experiment in a line: Competitive binding affinity to CRBN/DYRK1A (unknown origin) assessed as dissociation constant. In kind it is protein assay.
In test [3] the target is T2, Protein cereblon/Dual specificity tyrosine-phosphorylation-regulated kinase 1B (Homo sapiens) (UniProt Q9Y463+Q96SW2). Kind of test: PROTAC activity at CRBN/HibiT-tagged DYRK1B in Flp-In-T-REx-293 cells assessed as induction of degradation of DYRK1B by measuring maximum efficacy at 1 uM measured after 24 hrs by NanoBiT luciferase assay relative to control. In kind it is cell-based.

The target in test [4] is von Hippel-Lindau disease tumor suppressor/Dual specificity tyrosine-phosphorylation-regulated kinase 1A (Homo sapiens, UniProt P40337+Q13627). The experiment in a line: Competitive binding affinity to VHL/DYRK1A (unknown origin) assessed as dissociation constant by competition binding assay. In kind it is protein assay.
In test [5] the target is von Hippel-Lindau disease tumor suppressor/Dual specificity tyrosine-phosphorylation-regulated kinase 1B (Homo sapiens, UniProt P40337+Q9Y463). The experiment in a line: Competitive binding affinity to VHL/DYRK1B (unknown origin) assessed as dissociation constant. In kind it is protein assay.
For test [6], the target named is von Hippel-Lindau disease tumor suppressor/Dual specificity tyrosine-phosphorylation-regulated kinase 1A (Homo sapiens) (UniProt Q13627+P40337). The experiment in a line: PROTAC activity at VHL/HibiT-tagged DYRK1A in Flp-In-T-REx-293 cells assessed as induction of degradation of DYRK1A by measuring maximum efficacy at 0.3 uM measured after 24 hrs by NanoBiT luciferase assay relative to control. The class given is cell-based.

The target in test [7] is von Hippel-Lindau disease tumor suppressor/Dual specificity tyrosine-phosphorylation-regulated kinase 1B (Homo sapiens) (UniProt Q9Y463+P40337). The experiment in a line: PROTAC activity at VHL/HibiT-tagged DYRK1B in Flp-In-T-REx-293 cells assessed as induction of degradation of DYRK1B by measuring maximum efficacy at 0.3 uM measured after 24 hrs by NanoBiT luciferase assay relative to control. In kind it is cell-based.

Test [8] addresses T1, Protein cereblon/Dual specificity tyrosine-phosphorylation-regulated kinase 1A. The experiment in a line: PROTAC activity at CRBN/DYRK1A in HEK293 cells expressing GFP-SF3B1 assessed as inhibition of SF3B1 phosphorylation at 10 to 100 nM measured for 24 hrs by Western blot analysis. In kind it is cell-based. The following applies: dose 10-100 nM. A general note: Immunoblotting shows a protein as a band on a membrane.

For test [9] the target is unchanged. The experiment in a line: PROTAC activity at CRBN/HibiT-tagged DYRK1A in Flp-In-T-REx-293 cells assessed as induction of degradation of DYRK1A at 100 nM by measured after 24 hrs by NanoBiT luciferase assay. In kind it is cell-based.
For test [10] the target is unchanged. The experiment in a line: PROTAC activity at CRBN/HibiT-tagged DYRK1A in Flp-In-T-REx-293 cells assessed as induction of degradation of DYRK1A at 1 uM by measured after 24 hrs by NanoBiT luciferase assay. The class given is cell-based.
Test [11] addresses Protein cereblon/Dual specificity tyrosine-phosphorylation-regulated kinase 1B (Homo sapiens, UniProt Q96SW2+Q9Y463). The experiment in a line: Competitive binding affinity to CRBN/DYRK1B (unknown origin) assessed as dissociation constant. In kind it is protein assay.
In test [12] the target is T1, Protein cereblon/Dual specificity tyrosine-phosphorylation-regulated kinase 1A. Kind of test: PROTAC activity at CRBN/HibiT-tagged DYRK1A in Flp-In-T-REx-293 cells assessed as induction of degradation of DYRK1A by measuring maximum efficacy at 0.3 uM measured after 24 hrs by NanoBiT luciferase assay relative to control. In kind it is cell-based.
Test [13] addresses T2, Protein cereblon/Dual specificity tyrosine-phosphorylation-regulated kinase 1B (Homo sapiens). Kind of test: PROTAC activity at CRBN/HibiT-tagged DYRK1B in Flp-In-T-REx-293 cells assessed as induction of degradation of DYRK1B by measuring maximum efficacy at 0.3 uM measured after 24 hrs by NanoBiT luciferase assay relative to control. In kind it is cell-based.

As for `Cc1nc2ccc(-c3ccnc(N)c3)nc2n1-c1ccc(N2CCN(CCOCCOCCOCCC(=O)NC3CN(c4ccc5c(c4)C(=O)N(C4CCC(=O)NC4=O)C5=O)C3)CC2)c(F)c1` (centres undefined), the Emax (as a rule, the size of the effect at its maximum, as opposed to the concentration needed) in test [1] stood at 27%; in [3] it was 0%. Further, the negative-log Kd (pKd) (in general, the negative decadic logarithm of the Kd, by convention in mol/L) in [2] was 8.49.
As for `Cc1ncsc1-c1ccc(CNC(=O)[C@@H]2C[C@@H](O)CN2C(=O)[C@@H](NC(=O)CCOCCOCCOCCN2CCN(c3ccc(-n4c(C)nc5ccc(-c6ccnc(N)c6)nc54)cc3F)CC2)C(C)(C)C)cc1`, the results for the pKd in [4] and in test [5] were 8.89 and 8.44, respectively. For the same molecule, the maximum response (Emax) in [6] and in test [7] was 0% in each case.
For `Cc1nc2ccc(-c3ccnc(N)c3)nc2n1-c1ccc(N2CCN(CC#Cc3ccc(N4CCC(C(=O)N5CCC(n6cc(CNc7cccc8c7C(=O)N(C7CCC(=O)N(C)C7=O)C8=O)cn6)CC5)CC4)nc3)CC2)c(F)c1` (centres undefined), the Activity result in test [8] is “Active; Compound Partially Suppress The Phosphorylation”; in test [10], “Active; Compound Showed Modest Degradation”. For the same molecule, in test [9], the outcome was inactive.
On to `Cc1nc2ccc(-c3ccnc(N)c3)nc2n1-c1ccc(N2CCN(CCOCCOCCNc3cccc4c3C(=O)N(C3CCC(=O)NC3=O)C4=O)CC2)c(F)c1` (centres undefined), for which the pKd in test [11] was 8.46; in [2], 8.85. In addition, the maximal effect (Emax) in [12] was 52%; in [13] it was 25%.
The like results for `Cc1nc2ccc(-c3ccnc(N)c3)nc2n1-c1ccc(N2CCN(CCOCCOCCOCCNc3cccc4c3C(=O)N(C3CCC(=O)NC3=O)C4=O)CC2)c(F)c1` (centres undefined) were, in that order, 8.47, 8.64, 60% and 28%.
On the same counts, the results for `Cc1nc2ccc(-c3ccnc(N)c3)nc2n1-c1ccc(N2CCN(CCOCCNc3cccc4c3C(=O)N(C3CCC(=O)NC3=O)C4=O)CC2)c(F)c1` (centres undefined) are 8.62, 8.85, 40% and 0%.
With `Cc1nc2ccc(-c3ccnc(N)c3)nc2n1-c1ccc(N2CCN(C(=O)CCN3CCN(Cc4ccc(CNc5cccc6c5CN(C5CCC(=O)NC5=O)C6=O)cc4)CC3)CC2)c(F)c1` (centres undefined), the results for the negative-log Kd (pKd) in test [11] and in [2] were 7.33 and 7.70, respectively. In addition, the maximum response (Emax) amounted to 24% in [1] and 14% in test [3].
Consider `Cc1ncsc1-c1ccc(CNC(=O)[C@@H]2C[C@@H](O)CN2C(=O)[C@@H](NC(=O)CCOCCOCCOCCOCCN2CCN(c3ccc(-n4c(C)nc5ccc(-c6ccnc(N)c6)nc54)cc3F)CC2)C(C)(C)C)cc1`, for which the pKd was 8.85 in test [4] and 8.18 in test [5]. In addition, the Emax in test [6] and in test [7] was 0% each time.
As for `Cc1nc2ccc(-c3ccnc(N)c3)nc2n1-c1ccc(N2CCN(C(=O)CCCN3CCC(n4cc(CNc5cccc6c5C(=O)N(C5CCC(=O)NC5=O)C6=O)cn4)CC3)CC2)c(F)c1` (centres undefined), the figures for the pKd in test [11] and in test [2] were 8.29 and 8.55, respectively. The Emax came to 79% in test [1] and 63% in test [3].
The like results for `Cc1nc2ccc(-c3ccnc(N)c3)nc2n1-c1ccc(N2CCN(CCOCCOCCOCCC(=O)N3CCN(Cc4ccc(CNc5cccc6c5CN(C5CCC(=O)NC5=O)C6=O)cc4)CC3)CC2)c(F)c1` (centres undefined) were, in that order, 7.80, 8.25, 0% and 0%.
Take `Cc1nc2ccc(-c3ccnc(N)c3)nc2n1-c1ccc(N2CCN(C(=O)CN3CCC(CC(=O)N4CCC(n5cc(CNc6cccc7c6C(=O)N(C6CCC(=O)NC6=O)C7=O)cn5)CC4)CC3)CC2)c(F)c1` (centres undefined): the values for the Emax in test [1] and in test [3] were 78% and 65%, respectively. For the same molecule, in test [2], the negative-log Kd (pKd) was 9.19.
On the same counts, the results for `Cc1nc2ccc(-c3ccnc(N)c3)nc2n1-c1ccc(N2CCN(CCOCCOCCOCCC(=O)N3CCN(c4ccc5c(c4)C(=O)N(C4CCC(=O)NC4=O)C5=O)CC3)CC2)c(F)c1` (centres undefined) are 9%, 0% and 8.23.
Turning to `Cc1nc2ccc(-c3ccnc(N)c3)nc2n1-c1ccc(N2CCN(C(=O)CCCN3CCN(Cc4ccc(CNc5cccc6c5CN(C5CCC(=O)NC5=O)C6=O)cc4)CC3)CC2)c(F)c1` (centres undefined), the negative logarithm of the Kd (pKd) in test [11] was 8.28; in test [2] it was 8.77. Besides, the maximal effect (Emax) in test [1] was found to be 75%; in test [3], 54%.
For the molecule `Cc1ncsc1-c1ccc(CNC(=O)[C@@H]2C[C@@H](O)CN2C(=O)[C@@H](NC(=O)CCOCCOCCN2CCN(c3ccc(-n4c(C)nc5ccc(-c6ccnc(N)c6)nc54)cc3F)CC2)C(C)(C)C)cc1`, the pKd in test [4] was 8.66; in test [5] it was 8.16. Moreover, the Emax is 5% in test [6] and 2% in test [7].
`Cc1nc2ccc(-c3ccnc(N)c3)nc2n1-c1ccc(N2CCN(C(=O)CCCCN3CCN(Cc4ccc(CNc5cccc6c5CN(C5CCC(=O)NC5=O)C6=O)cc4)CC3)CC2)c(F)c1` (centres undefined): the pKd in test [11] is 8.08; in [2] it was 8.48. The maximum response (Emax) in [1] came out at 63%; in [3], 38%.
As to `Cc1nc2ccc(-c3ccnc(N)c3)nc2n1-c1ccc(N2CCN(CCOCCOCCOCCOCCNc3cc4c(cc3F)C(=O)N(C3CCC(=O)NC3=O)C4=O)CC2)c(F)c1` (centres undefined), the negative-log Kd (pKd) in test [11] was 7.37; in test [2] it was 7.89. The Emax amounted to 80% in test [1] and 58% in test [3].
For the molecule `Cc1ncsc1-c1ccc(CNC(=O)[C@@H]2C[C@@H](O)CN2C(=O)[C@@H](NC(=O)CCOCCN2CCN(c3ccc(-n4c(C)nc5ccc(-c6ccnc(N)c6)nc54)cc3F)CC2)C(C)(C)C)cc1`, the pKd in [4] is 8.47; in [5], 8.26. Also, the maximal response (Emax) in test [6] came out at 11%; in test [7], 0%.

For the origin of these results see ChEMBL document CHEMBL6120970, “Discovery and Functional Characterization of a Potent, Selective, and Metabolically Stable PROTAC of the Protein Kinases DYRK1A and DYRK1B” (J Med Chem, 2024).
